Reference: US6475790B2, “Assay for screening agents that alter angiogenesis” (Biocure Limited, priority 1997, dated 2002)
Entries after “also recorded” stand apart in the source; their conditions may differ.

Tested on: co-culture of Human Umbilical Vein Endothelial Cells (HUVEC) with Human Adult Dermal Fibroblasts
Assay: multicellular in vitro angiogenesis (tubule) assay, dual culture of HUVEC and fibroblasts
Type: cell-based
Conditions: VEGF 10 ngml^-1 added at the start and at each medium change; 14 days; von Willebrand factor immunoassay
From the text: The assay system involves co-culture of Human Umbilical Vein Endothelial Cells (HUVEC) with Human Adult Dermal Fibroblasts. Under the conditions provided the cells form a series of anastomosed tubules.
The Human Umbilical Vein Endothelial Cells (HUVEC) are commercially available from suitable outlets and in this case are bought in cryopreserved form. Prior to employment in the tubule assay, the cells are routinely passed and cultured in any suitable commercially available Endothelial Growth Medium, EGM, containing 2% foetal calf serum. The HUVEC are used at passes 2 to 6 in the assay.
The Human Adult Dermal Fibroblasts are cultured from skin samples which may be obtained from local hospitals. […]
The tissue culture treated vessels to be used in the assay are equilibrated by pre-incubation with EGM, plus and minus treatments, for a period of 30 minutes at 37° C., 5% CO2 humidified atmosphere. […] The cells are resuspended in EGM and counted. […] The techniques and materials involved in culturing endothelial cells are well known to persons of skill in the art, and are readily available from standard texts. […]
Visualization of the tubules is accomplished most readily by an immunoassay that targets a cell marker on one or both of the cells being cultured. […]

VEGF
tubule formation: marked increase; also recorded: much enhanced
